The source of these data is US20100234313A1, “STABILIZED MICRONISED PARTICLES” (priority 2007, published 2010).

SMILES strings stand for the structures.

The nature of series [1]: Particle size distribution and mean particle size (d4,3) by laser diffraction (LS230). Type of series: physicochemical. The note with it: for mean particle size (d4,3): non-ground product dispersed in water. As for the experimental part:
Measurements were carried out for the following organic compounds: natamycin (DSM Gist, Delft, the Netherlands), nystatin (DSM, Delft, the Netherlands), cocoa (Blooker Cocoa, Amsterdam, the Netherlands) and coffee (Douwe Egberts Coffee, Utrecht, the Netherlands). For natamycin two products each containing differently shaped natamycin particles were included in the example; a natamycin product comprising disc-shaped particles and a natamycin product comprising needle-shaped particles. Before use the coffee was filtered through a 150 μm sieve. Samples of the above organic compounds were dispersed in demineralised water until the light obscuration value, which was measured by Laser Diffraction technology using a Laser Diffraction Particle Size Analyzer LS230 from BeckmanCoulter, Fullerton, Calif., USA, was between 45% and 55%. […] Then, the particle size distribution was analysed with the device for 90 seconds. The device made use of a red laser and a tungsten lamp with wavelengths of 450, 600 and 900 nm to measure the particle size. The device required the refractive index of the liquid phase and the particles and the imaginary refractive index of the particles for determining the particle size distribution from the raw data. These values were manually entered into the measurement device (refractive index liquid: 1.33; refractive index natamycin: 1.6; nystatin: 1.6; cocoa: 2.0; coffee: 2.0; imaginary refractive index natamycin: 0.01; nystatin: 0.01; cocoa: 1.0; coffee: 1.0). From the particle size distribution the mean particle size was determined. The mean particle size provided by the measurement device was a volume based particle size, d4,3. The distribution per particle size range is given as a percentage of the total.
A buffer solution of pH 8 was made by mixing 13.75 ml citric acid solution of 0.1 mol/l with 486.25 ml sodium hydroxide solution of 0.2 mol/l. 25 g of disc-shaped natamycin (d4,3: 14.6 μm; DSM Gist, Delft, the Netherlands) was added to the buffer solution and the powder was dispersed by means of stirring. The grinding chamber (300 ml) of the ball mill (Dynomill KDL Special from Bachofen AG, Basel, Switzerland) was filled up to 75% (v/v) with 0.3 mm zirconium oxide beads stabilized with yttrium (Tosoh Corporation, Tokyo, Japan). The ball mill was operated at 2000 rotations per minute. The natamycin suspension was pumped through the ball mill at a flow rate of 6.1 g/s. The suspension that exited the ball mill was returned to the vessel containing the rest of the suspension. The suspension passed through the chamber of the ball mill multiple times during the grinding experiment. The residence time of the suspension in the grinding chamber and the vessel was 26.7 seconds and 59.4 seconds, respectively. Samples of the suspension exiting the mill were taken after 2, 5, 10, 20, 30, 45, 60, 75 and 90 minutes. The particle size in the suspension samples was measured for each sample by means of laser diffraction using the Laser Diffraction Particle Size Analyzer called LS230 from BeckmanCoulter (Fullerton, Calif., USA).
Disc-shaped natamycin powder was dispersed in water at a concentration of 3000 ppm. The mean particle size of the natamycin suspension was approximately 15 μm. The suspension was homogenized with a homogenizer (Panda 2K, ns100L, GEA NIRO SOAVI, Cell disrupter (R-type)) and a suspension comprising micronised natamycin particles was obtained. In Table 5 the mean particle size (d4,3) of the particles of the obtained suspension is shown as a function of homogenization pressure for a different number of homogenization cycles. […]
The experiment was essentially performed as for natamycin (see Example 2). […]

Series [2] in a line: Dissolution test, suspension diluted 70 times with water at room temperature. The format is physicochemical. The note with it: stirred. As for the experimental part: A micronised natamycin suspension prepared essentially as described in Example 7 (with size smaller than 0.2 μm) was diluted 70 times with water at room temperature. The suspension was stirred. Samples were taken out after 5 seconds and then every 10 seconds. The particles were removed from the suspension by filtration with a 0.02 μm syringe-filter (Whatman International Ltd, England). The natamycin concentration of the remaining solution was measured with a spectrophotometer (Uvikon 933, Kontron Instruments). […] The solution reached saturation within 5 seconds (approximately 43 ppm natamycin in solution and solid particles remaining). The same test was repeated with non-grinded disc-shaped natamycin particles with a mean particle size of around 15 μm. In this case the saturation concentration was reached after approximately 2 hours.

Series [3] is described as follows: Sedimentation behaviour of suspensions (volume fraction below the sedimentation front). The format is physicochemical. The protocol:
In this experiment the stability of micronised and non-micronised natamycin suspensions was analyzed by observing the sedimentation behavior of the suspensions. A micronised natamycin suspension was prepared essentially as described in Example 2 with the proviso that the natamycin was suspended in demineralized water and the pH was not set. Next, a suspension with a final natamycin concentration of 1% (w/w) was prepared in an aqueous solution containing 0.01 M NaCl. The pH of samples of the suspension was set with 0.01 M NaOH and 0.01 M HCl. The samples of the suspension were stored and the pH was adjusted after 10 and 24 hours, if necessary. After 24 hours the pH of the samples of the suspension remained constant. Ten ml of each separate sample was placed in a plastic pipette (Ten ml sterile and disposable plastic pipette; inner diameter 7 mm; Bibby Sterilin Ltd. Stone, Staffordshire, United Kingdom) which was closed at both ends and stored vertically at 4° C. The sedimentation behavior of the samples was followed in time by measuring the volume above and below the sedimentation front within each pipette. In Table 7 the results are shown. The percentages indicate the volume fraction below the sedimentation front. […] This implies that the particles form sediment. The rate at which this occurs varies with pH. […]

In series [4] the test system is Penicillium discolor PED1, CR1A and Penicillium discolor PED74, L1. Description: Challenge test on coated Gouda cheese. The format is cell-based. As for the experimental part: To test the efficacy of micronised natamycin in a cheese application, an experiment was performed wherein the surface of fresh brined Gouda cheeses were challenged with Penicillium discolor strains and treated with formulations comprising natamycin with different particle sizes. The amount of mould spores that was able to germinate on the treated cheese surfaces are an indication of the anti-fungal activity of the natamycin analyzed. The cheeses (10 per natamycin particle type) were considered to be no longer protected by natamycin, when at least 50% of the cheeses analyzed had more than two growing colonies.
Cheeses were coated with a coating containing base polymer Craymul 4386 (Cray Valley, Brummen) and containing natamycin particles. Cheeses were then contaminated at day zero with Penicillium discolor PED1, CR1A and Penicillium discolor PED74, L1 at a concentration of 1.1×10^3/cm^2. The cheeses were visually checked for fungal growth on a daily basis for three weeks. The experiment was carried out with three different natamycin particles: disc-shaped natamycin particles having a mean particle diameter of 15 μm; grinded disc-shaped natamycin particles for which grinding was stopped when the mean particle diameter was 1.23 μm; and micronised natamycin particles having a mean particle diameter of 0.18 μm. […] As a control, 10 cheeses comprising no natamycin in the coating were analyzed. […]

As for `C[C@@H]1C/C=C/C=C/C=C/C=C/[C@H](O[C@@H]2O[C@H](C)[C@@H](O)[C@H](N)[C@@H]2O)C[C@@H]2O[C@](O)(C[C@@H](O)C[C@H]3O[C@@H]3/C=C/C(=O)O1)C[C@H](O)[C@H]2C(=O)O` [Natamycin disc, natamycin], the entries for the “mean particle size (d4,3)” value in series [1] (listed as Disc-shaped natamycin powder) and in series [1] (listed as disc-shaped natamycin product) were “approximately 15 μm” and 14.6 μm, respectively. In addition, the Particle size distribution in series [1] (particle size 0-0.2 μm) was 0.0 % w/w; in series [1] (particle size 0.2-0.8 μm), 0.0 % w/w; in series [1] (particle size 0.8-2.0 μm), 0.8 % w/w; in series [1] (particle size 2.0-5.0 μm), 18.4 % w/w; in series [1] (particle size 5.0-10.0 μm), 32.6 % w/w; in series [1] (particle size 10.0-50.0 μm) it was 47.8 % w/w. This compound also gave a Particle size distribution in series [1] (particle size 50.0-200.0 μm) of 0.4 % w/w. In series [2], the “time to reach saturation concentration” value is listed as “approximately 2 hours”. Also, the sedimentation behaviour result in series [3] (all pH values (pH 3 to 10), within 24 hours) is listed as “completely sediment”. The “Protection of cheese against fungal growth” value in series [4] (150 ppm natamycin in the coating) came to 16 days; in series [4] (250 ppm natamycin in the coating), 18 days.
`C[C@@H]1C/C=C/C=C/C=C/C=C/[C@H](O[C@@H]2O[C@H](C)[C@@H](O)[C@H](N)[C@@H]2O)C[C@@H]2O[C@](O)(C[C@@H](O)C[C@H]3O[C@@H]3/C=C/C(=O)O1)C[C@H](O)[C@H]2C(=O)O` [Natamycin needle, natamycin]: the “mean particle size (d4,3)” value in series [1] (listed as needle-shaped natamycin product) is 6.4 μm. Besides, the Particle size distribution stood at 10.2 % w/w in series [1] (particle size 0-0.2 μm); 7.2 % w/w in series [1] (particle size 0.2-0.8 μm); 10.5 % w/w in series [1] (particle size 0.8-2.0 μm); 24.9 % w/w in series [1] (particle size 2.0-5.0 μm); 31.7 % w/w in series [1] (particle size 5.0-10.0 μm); 15.6 % w/w in series [1] (particle size 10.0-50.0 μm). Also, the Particle size distribution in series [1] (particle size 50.0-200.0 μm) turned out to be 0.0 % w/w.
In the case of `C[C@@H]1[C@H](O)[C@@H](C)/C=C/C=C/CC/C=C/C=C/C=C/C=C/C(O[C@H]2O[C@H](C)[C@@H](O)[C@H](N)[C@@H]2O)CC2O[C@](O)(CC(O)C(O)CCC(O)CC(O)CC(O)CC(=O)O[C@H]1C)CC(O)C2C(=O)O` (stereo partly drawn) [Nystatin, nystatin], in series [1], the “mean particle size (d4,3)” value is given as 3.4 μm. In addition, the Particle size distribution came to 7.4 % w/w in series [1] (particle size 0-0.2 μm); 4.4 % w/w in series [1] (particle size 0.2-0.8 μm); 27.2 % w/w in series [1] (particle size 0.8-2.0 μm); 46.7 % w/w in series [1] (particle size 2.0-5.0 μm); 12.2 % w/w in series [1] (particle size 5.0-10.0 μm); 2.1 % w/w in series [1] (particle size 10.0-50.0 μm). Further, the Particle size distribution in series [1] (particle size 50.0-200.0 μm) was found to be 0.0 % w/w. Moreover, the “volume percentage below the sedimentation front” value in series [3] (pH 4 to 6, after one day) was “around 25%”.
